This test deals with Plasmodium berghei. The test is described as follows: Luciferase/luciferin-expressing antifolate-resistant parasites were used to infect a culture of HepG2 cells that were pre-incubated with compounds. Infected hepatocytes emit light due to the luciferase reaction. Assay results are presented as the percent inhibition of light emission compared to control. […]. Type of test: functional. To be noted: sporozoite; for IC90: read-out: LUCIFERASE INFECTION ASSAY - IC90.

Setting [1] is: read-out: LUCIFERASE INFECTION ASSAY - IC50.

As a reminder, the IC50 is the concentration that inhibits the measured activity by half. Broadly, the IC90 is the concentration at which the effect reaches the 90% level.

Regarding `CC(C)c1ccc(Nc2nccc3nc(-c4ccc(F)c(F)c4)[nH]c23)cc1`, the IC90 was greater than 10 µM. Further, where the note is “HEPG2TOX_HILL_SLOPE 1.58, HEPG2TOX_R_SQUARED 0.81, PBLUC_HILL_SLOPE 0.658, PBLUC_R_SQUARED 0.852, read-out: LUCIFERASE INFECTION ASSAY - IC50”, the IC50 was determined as 0.969 µM.
For `COc1ccccc1NC(=O)Cc1noc(CNc2ccc(F)cc2C)n1`, the IC90 is greater than 10 µM. The half-maximal inhibitory concentration (IC50) under setting [1] was greater than 10 µM.
As for `Cc1cc(NC(=O)COC(=O)CCCOc2ccc(Cl)cc2C)no1`, the IC90 is greater than 10 µM. For the same compound, the IC50 (FFLUC_HILL_SLOPE 1.69, FFLUC_R_SQUARED 0.223, read-out: LUCIFERASE INFECTION ASSAY - IC50) was greater than 10 µM.
For the compound `Cc1nn(Cc2ccccc2Cl)c2sc(C(=O)OC(C)c3nc(=O)c4ccccc4[nH]3)cc12` (stereo not drawn), the IC90 was greater than 10 µM. Moreover, the IC50 (PBLUC_HILL_SLOPE 18.8, PBLUC_R_SQUARED 0.168, read-out: LUCIFERASE INFECTION ASSAY - IC50) was found to be 9.99 µM.
`CN(CC1COc2ccccc2O1)c1ccc(C#N)cn1` (stereo not drawn): the IC90 was greater than 10 µM. Besides, under “HEPG2TOX_HILL_SLOPE 3.52, HEPG2TOX_R_SQUARED 0.623, PBLUC_HILL_SLOPE 1.89, PBLUC_R_SQUARED 0.914, read-out: LUCIFERASE INFECTION ASSAY - IC50”, the IC50 is 5.89 µM.
`O=C(c1cncn1-c1ccccc1)N1CC=C(c2ccccc2)CC1`: the IC90 was greater than 10 µM. Further, the IC50 (HEPG2TOX_HILL_SLOPE 2.04, HEPG2TOX_R_SQUARED 0.78, PBLUC_HILL_SLOPE 1.11, PBLUC_R_SQUARED 0.463, read-out: LUCIFERASE INFECTION ASSAY - IC50) turned out to be 4.38 µM.
With `c1ccc(OCCCn2c(CN3CCCCC3)nc3ccccc32)cc1`, the IC90 is greater than 9.44 µM. Moreover, the IC50 (PBLUC_HILL_SLOPE 1.54, PBLUC_R_SQUARED 0.0855, read-out: LUCIFERASE INFECTION ASSAY - IC50) is greater than 9.44 µM.
`O=C(NCCO)c1cccc(-c2ccc3ncc(-c4cccc(OC(F)(F)F)c4)n3n2)c1`: the IC90 came out at 9.96 µM. Further, the IC50 (PBLUC_HILL_SLOPE 3.2, PBLUC_R_SQUARED 0.416, read-out: LUCIFERASE INFECTION ASSAY - IC50) worked out at 5.01 µM.
`Cc1noc(C)c1CCC(=O)Nc1nc2cc(C(F)(F)F)ccc2n1Cc1ccco1`: the IC90 is 3.57 µM. Moreover, the IC50 (HEPG2TOX_HILL_SLOPE 1.36, HEPG2TOX_R_SQUARED 0.789, PBLUC_HILL_SLOPE 10.4, PBLUC_R_SQUARED 0.861, read-out: LUCIFERASE INFECTION ASSAY - IC50) turned out to be 2.89 µM.
Turning to `CN1N=C2c3ccccc3CCCC2C1c1ccc(C(C)(C)C)cc1` (stereo not drawn), the IC90 came to 3.51 µM. Moreover, the IC50 (PBLUC_HILL_SLOPE 38, PBLUC_R_SQUARED 0.372, read-out: LUCIFERASE INFECTION ASSAY - IC50) turned out to be 3.31 µM.
Consider `O=C(Nc1nc2ccccc2[nH]1)c1cn(Cc2ccccc2)nc1-c1cccnc1`, for which the IC90 was greater than 10 µM. Also, the IC50 (PBLUC_HILL_SLOPE 3.18, PBLUC_R_SQUARED 0.533, read-out: LUCIFERASE INFECTION ASSAY - IC50) stood at 7.1 µM.
Consider `OC(Cc1ccccc1)(c1ccccc1)c1ccccc1/N=C/c1ccc(Cl)c(Cl)c1` (stereo not drawn), for which the IC90 was greater than 7.39 µM. The IC50 under setting [1] was greater than 7.39 µM.
On to `Cc1nc2nc(C(F)(F)F)nn2c(C)c1CCC(=O)N1CCCC1c1ccc2c(c1)OCCCO2` (stereo not drawn), for which the IC90 is 8.93 µM. Also, the IC50 (PBLUC_HILL_SLOPE 2.87, PBLUC_R_SQUARED 0.605, read-out: LUCIFERASE INFECTION ASSAY - IC50) was determined as 4.15 µM.
Consider `Cc1noc(C)c1C(=O)ONC(=N)c1ccc(OC(F)(F)F)cc1`, for which the IC90 was greater than 9.61 µM. Also, under setting [1], the IC50 is greater than 9.61 µM.
Regarding `COc1ccccc1NCC(=O)N/N=C1/C(=O)Nc2ccc(C(C)C)cc21`, the IC90 is greater than 10 µM. For the same compound, the IC50 under setting [1] was greater than 10 µM.
As for `N#Cc1ccc(-c2ccc3nnc(-c4cccc(C(F)(F)F)c4)n3c2)cc1`, the IC90 worked out at 7.29 µM. Besides, under “HEPG2TOX_HILL_SLOPE 3.44, HEPG2TOX_R_SQUARED 0.706, PBLUC_HILL_SLOPE 4.37, PBLUC_R_SQUARED 0.179, read-out: LUCIFERASE INFECTION ASSAY - IC50”, the IC50 worked out at 4.41 µM.
`Cc1sc2nc(-c3cccnc3)nc(N3CCOCC3)c2c1-c1ccccc1`: the IC90 came out at 9.9 µM. The IC50 (FFLUC_HILL_SLOPE 7.85, FFLUC_R_SQUARED 0.0779, PBLUC_HILL_SLOPE 15.6, PBLUC_R_SQUARED 0.278, read-out: LUCIFERASE INFECTION ASSAY - IC50) came to 8.61 µM.
As to `CC(C)Cc1nc2oc3c(NCCN(C)C)ncnc3c2c2c1COC(C)(C)C2`, the IC90 is greater than 8.3 µM. For the same compound, the IC50 (PBLUC_HILL_SLOPE 11.6, PBLUC_R_SQUARED 0.0696, read-out: LUCIFERASE INFECTION ASSAY - IC50) was determined as 7.66 µM.
Turning to `O=C1C=C(SCC(=O)c2ccc([N+](=O)[O-])cc2)SC(c2ccccc2Cl)C1` (stereo not drawn), the IC90 is greater than 7.86 µM. For the same compound, the IC50 under setting [1] is greater than 7.86 µM.
For `Cc1noc(C)c1COc1ccc(C(=O)NNc2c(Cl)cc(Cl)cc2Cl)cc1`, the IC90 was greater than 10 µM. Further, the IC50 under setting [1] was greater than 10 µM.
In the case of `CCn1c2ccccc2c2cc(NC(C)C(=O)N3CCNC3=O)ccc21` (stereo not drawn), the IC90 came out at 4.48 µM. Further, the IC50 (PBLUC_HILL_SLOPE 2.83, PBLUC_R_SQUARED 0.574, read-out: LUCIFERASE INFECTION ASSAY - IC50) is 2.06 µM.
On to `O=C1C=C/C(=N\Nc2ccccc2C(F)(F)F)c2cccnc21`, for which the IC90 amounted to 1.31 µM. The IC50 (HEPG2TOX_HILL_SLOPE 0.86, HEPG2TOX_R_SQUARED 0.964, PBLUC_HILL_SLOPE 13.8, PBLUC_R_SQUARED 0.7, read-out: LUCIFERASE INFECTION ASSAY - IC50) came out at 1.12 µM.
For the compound `CCCCNC(=O)COc1ccc2[nH]c3ccccc3c(=O)c2c1`, the IC90 is 8.21 µM. In addition, the IC50 (PBLUC_HILL_SLOPE 1.51, PBLUC_R_SQUARED 0.724, read-out: LUCIFERASE INFECTION ASSAY - IC50) was 1.92 µM.
With `CC(C)(C)c1ccc(OCC(=O)N2CCC(C(N)=O)CC2)cc1`, the IC90 is greater than 10.4 µM. Also, the IC50 under setting [1] was greater than 10.4 µM.
On to `COc1ccc(OCCCC(=O)N(Cc2ccccc2)c2nc3c(C)cccc3s2)cc1`, for which the IC90 is greater than 10 µM. Moreover, under setting [1], the IC50 was greater than 10 µM.
As to `CC(=O)c1ccc(NC(=O)N2[C@@H]3CC[C@@H](C3)[C@H]2c2nc3cccc(OCc4ccc(F)cc4)c3[nH]2)cc1`, the IC90 was greater than 10 µM. Further, the IC50 (FFLUC_HILL_SLOPE 7.32, FFLUC_R_SQUARED 0.306, PBLUC_HILL_SLOPE 12.2, PBLUC_R_SQUARED 0.357, read-out: LUCIFERASE INFECTION ASSAY - IC50) turned out to be 9.72 µM.
`Cc1ccc(-n2nnnc2-c2cnc3ccccc3c2-c2ccccc2)cc1`: the IC90 is greater than 9.08 µM. Under setting [1], the IC50 was greater than 9.08 µM.
For the compound `COc1ccc(NCC2(c3ccnc(-c4ccccc4Cl)c3)CC2)cc1OC`, the IC90 was determined as 9.12 µM. Further, the IC50 (HEPG2TOX_HILL_SLOPE 3.27, HEPG2TOX_R_SQUARED 0.816, PBLUC_HILL_SLOPE 4.33, PBLUC_R_SQUARED 0.443, read-out: LUCIFERASE INFECTION ASSAY - IC50) is 5.49 µM.
In the case of `CCN(CC)S(=O)(=O)c1ccc(O)c(NC(=O)c2ccc(SC(F)(F)F)cc2)c1`, the IC90 was greater than 10 µM. For the same compound, the IC50 under setting [1] was greater than 10 µM.
Turning to `CCCCNC(=O)c1c(NC(=O)c2cccc(C)c2)nc2ccc(C)cn12`, the IC90 was determined as 3.17 µM. Further, for the setting “FFLUC_HILL_SLOPE 134, FFLUC_R_SQUARED 0.564, HEPG2TOX_HILL_SLOPE 2.72, HEPG2TOX_R_SQUARED 0.791, PBLUC_HILL_SLOPE 3.36, PBLUC_R_SQUARED 0.556, read-out: LUCIFERASE INFECTION ASSAY - IC50”, the IC50 stood at 1.65 µM.
Regarding `COC(=O)c1cnc(Sc2n[nH]c(=O)n2C2CCCCC2)c([N+](=O)[O-])c1`, the IC90 was greater than 8.7 µM. Also, the half-maximal inhibitory concentration (IC50) under setting [1] was greater than 8.7 µM.
For the compound `CCN(Cc1ccccc1)c1ccc(/C=N/Nc2ccc(C)c(Cl)c2)cc1`, the IC90 is greater than 10 µM. The IC50 (FFLUC_HILL_SLOPE 2.55, FFLUC_R_SQUARED 0.818, read-out: LUCIFERASE INFECTION ASSAY - IC50) was greater than 10 µM.
As for `O=C(COC(=O)Cc1ccc(Cl)c(Cl)c1)Nc1ccc(OCc2ccccc2)cc1`, the IC90 was greater than 10 µM. In addition, the IC50 under setting [1] is greater than 10 µM.
`Cc1cc(C(=O)NNC(=O)c2c(C)nc3ccccn23)c2nc3n(c2n1)CCCCC3`: the IC90 was determined as 0.662 µM. The IC50 (HEPG2TOX_HILL_SLOPE 1.28, HEPG2TOX_R_SQUARED 0.815, PBLUC_HILL_SLOPE 3.27, PBLUC_R_SQUARED 0.895, read-out: LUCIFERASE INFECTION ASSAY - IC50) came to 0.338 µM.
For the compound `CCCCCn1nc(C(=O)N2CCN(Cc3nc4ccccc4s3)CC2)c2ccccc2c1=O`, the IC90 is greater than 10 µM. The IC50 under setting [1] was greater than 10 µM.
Regarding `O=C(NCC1COc2ccccc2O1)c1cc2ccccc2cc1O` (stereo not drawn), the IC90 was greater than 10 µM. Besides, the concentration for half-maximal inhibition (IC50) under setting [1] is greater than 10 µM.
Consider `O=[N+]([O-])c1ccc(O)c(CNc2ncnc3sc4c(c23)CCCC4)c1`, for which the IC90 came out at 8.25 µM. In addition, the IC50 (HEPG2TOX_HILL_SLOPE 12, HEPG2TOX_R_SQUARED 0.784, PBLUC_HILL_SLOPE 5.09, 13.1, PBLUC_R_SQUARED 0.860, 0.272, read-out: LUCIFERASE INFECTION ASSAY - IC50) was found to be 7.21 µM.
Consider `O=C(CN1CC=C(c2c[nH]c3ccccc23)CC1)Nc1cccc(F)c1`, for which the IC90 was greater than 10 µM. In addition, where the note is “PBLUC_HILL_SLOPE 2.56, PBLUC_R_SQUARED 0.252, read-out: LUCIFERASE INFECTION ASSAY - IC50”, the IC50 turned out to be 6.56 µM.
As for `OC(CNC1CCCc2ccccc21)COC(c1ccc(F)cc1)c1ccc(F)cc1` (stereo not drawn), the IC90 was greater than 10 µM. Also, the IC50 under setting [1] was greater than 10 µM.
